Article PMC5712561 (Frontiers in Oncology, 2017)
Where two headings read alike, the source gives them in different places.

How the values were obtained:
H1975 cells [1] = assay: Growth inhibition, sulforhodamine B assay, H1975; format: cell-based; conditions: for anticancer activity / effect on cell proliferation: H1975, result in words
Source text: (§1) Two NSCLC cell lines carrying specific EGFR mutations (HCC827: EGFR sensitizing E746_A750 deletion; H1975: resistance-causing EGFR T790M secondary mutation) were purchased from American Type Culture Collection (ATCC; Manassas, VA, USA). A normal human lung epithelial cell line BEAS-2B was also obtained from ATCC to investigate the potential toxic effect of the tested drugs. HCC827, H1975, and BEAS-2B cells were maintained in RPMI1640 medium supplemented with 10% fetal bovine serum, 100-U/mL streptomycin sulfate, and 100-U/mL penicillin G sulfate, and incubated at 37°C in 5% CO2.
(§2) Growth inhibitory effects of various drug candidates on the cell lines were evaluated by the sulforhodamine B assay ([32]). Cells were seeded into 96-well tissue culture plates in 100 µL at a plating density of 3,000–5,000 cells/well, and allowed to incubate overnight. The cells were then treated with various drug candidates at a range of concentrations and allowed to incubate at 37°C in 5% CO2 for 72 h. Each drug concentration was tested in quadruplicate and controls were tested in replicates of eight.

EGFR wild type [2] = target: EGFR wild type (Homo sapiens, UniProt P00533); assay: Cell-free kinase inhibition assay (ADP-Glo), EGFR wild type; format: biochemical; conditions: recombinant EGFR wild type, poly-EY substrate
Sequence of EGFR wild type (Homo sapiens, UniProt P00533) (P00533 25-1210): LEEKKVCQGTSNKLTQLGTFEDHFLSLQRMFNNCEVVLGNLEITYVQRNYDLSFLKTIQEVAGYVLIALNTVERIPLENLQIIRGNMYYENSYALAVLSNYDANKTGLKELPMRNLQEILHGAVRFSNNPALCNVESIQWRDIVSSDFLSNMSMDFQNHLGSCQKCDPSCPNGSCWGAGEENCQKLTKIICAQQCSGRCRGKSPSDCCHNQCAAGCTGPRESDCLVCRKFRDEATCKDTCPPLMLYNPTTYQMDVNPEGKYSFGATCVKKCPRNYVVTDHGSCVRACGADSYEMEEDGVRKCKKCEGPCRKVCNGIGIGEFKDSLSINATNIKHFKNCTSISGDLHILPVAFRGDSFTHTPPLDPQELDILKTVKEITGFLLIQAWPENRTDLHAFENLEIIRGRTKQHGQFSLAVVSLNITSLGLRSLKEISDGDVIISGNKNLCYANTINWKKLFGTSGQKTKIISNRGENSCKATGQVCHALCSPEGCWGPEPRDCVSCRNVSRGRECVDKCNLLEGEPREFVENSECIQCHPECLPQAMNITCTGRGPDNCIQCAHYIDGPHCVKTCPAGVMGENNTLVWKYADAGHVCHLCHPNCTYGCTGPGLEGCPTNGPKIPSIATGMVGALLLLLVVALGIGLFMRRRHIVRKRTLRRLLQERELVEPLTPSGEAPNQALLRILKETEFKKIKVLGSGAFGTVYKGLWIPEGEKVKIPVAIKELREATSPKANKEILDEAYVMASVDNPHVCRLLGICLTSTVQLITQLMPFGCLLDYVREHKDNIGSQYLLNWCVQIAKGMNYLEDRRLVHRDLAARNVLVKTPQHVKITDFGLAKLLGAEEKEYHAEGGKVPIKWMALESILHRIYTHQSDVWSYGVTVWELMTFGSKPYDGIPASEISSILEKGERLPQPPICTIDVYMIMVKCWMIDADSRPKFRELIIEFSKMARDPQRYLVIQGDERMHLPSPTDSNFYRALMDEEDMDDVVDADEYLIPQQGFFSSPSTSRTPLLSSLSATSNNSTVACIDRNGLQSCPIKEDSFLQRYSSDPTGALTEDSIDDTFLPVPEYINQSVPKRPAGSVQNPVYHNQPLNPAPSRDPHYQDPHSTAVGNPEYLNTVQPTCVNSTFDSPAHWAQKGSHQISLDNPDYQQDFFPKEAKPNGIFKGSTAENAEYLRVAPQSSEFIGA
Description: (§3) Inhibition of tyrosine kinase signaling by the drug candidates identified was examined in a cell-free system by assessing the phosphorylation of a poly-EY (4:1 Glu, Tyr) peptide substrate (for EGFR) with recombinant kinases EGFR^wt, EGFR^L858R, or EGFR^L858R+T790M as described previously ([34]). Inhibition of the recombinant kinases by the drug candidates was evaluated by using the ADP-Glo Kinase assay kit according to the manufacturer’s instruction (Promega, Madison, WI, USA). […] Also, 5 µL of ADP-Glo reagent was then added and incubation continued at room temperature for another 40 min. Afterward, 10 µL of kinase detection reagent was added and the mixture was allowed to incubate at room temperature for 30 min, before the measurement of luminescence by GloMax 20/20 Luminometer (Promega).

EGFR wild type [3] = assay: as above; format: biochemical; conditions: wild type IC50 versus L858R IC50
Description: as §3

EGFR L858R = EGFR L858R (Homo sapiens, UniProt P00533, L858R); assay: Cell-free kinase inhibition assay (ADP-Glo), EGFR L858R; format: biochemical; conditions: recombinant EGFR L858R, poly-EY substrate
Sequence of EGFR L858R (P00533 25-1210 L858R): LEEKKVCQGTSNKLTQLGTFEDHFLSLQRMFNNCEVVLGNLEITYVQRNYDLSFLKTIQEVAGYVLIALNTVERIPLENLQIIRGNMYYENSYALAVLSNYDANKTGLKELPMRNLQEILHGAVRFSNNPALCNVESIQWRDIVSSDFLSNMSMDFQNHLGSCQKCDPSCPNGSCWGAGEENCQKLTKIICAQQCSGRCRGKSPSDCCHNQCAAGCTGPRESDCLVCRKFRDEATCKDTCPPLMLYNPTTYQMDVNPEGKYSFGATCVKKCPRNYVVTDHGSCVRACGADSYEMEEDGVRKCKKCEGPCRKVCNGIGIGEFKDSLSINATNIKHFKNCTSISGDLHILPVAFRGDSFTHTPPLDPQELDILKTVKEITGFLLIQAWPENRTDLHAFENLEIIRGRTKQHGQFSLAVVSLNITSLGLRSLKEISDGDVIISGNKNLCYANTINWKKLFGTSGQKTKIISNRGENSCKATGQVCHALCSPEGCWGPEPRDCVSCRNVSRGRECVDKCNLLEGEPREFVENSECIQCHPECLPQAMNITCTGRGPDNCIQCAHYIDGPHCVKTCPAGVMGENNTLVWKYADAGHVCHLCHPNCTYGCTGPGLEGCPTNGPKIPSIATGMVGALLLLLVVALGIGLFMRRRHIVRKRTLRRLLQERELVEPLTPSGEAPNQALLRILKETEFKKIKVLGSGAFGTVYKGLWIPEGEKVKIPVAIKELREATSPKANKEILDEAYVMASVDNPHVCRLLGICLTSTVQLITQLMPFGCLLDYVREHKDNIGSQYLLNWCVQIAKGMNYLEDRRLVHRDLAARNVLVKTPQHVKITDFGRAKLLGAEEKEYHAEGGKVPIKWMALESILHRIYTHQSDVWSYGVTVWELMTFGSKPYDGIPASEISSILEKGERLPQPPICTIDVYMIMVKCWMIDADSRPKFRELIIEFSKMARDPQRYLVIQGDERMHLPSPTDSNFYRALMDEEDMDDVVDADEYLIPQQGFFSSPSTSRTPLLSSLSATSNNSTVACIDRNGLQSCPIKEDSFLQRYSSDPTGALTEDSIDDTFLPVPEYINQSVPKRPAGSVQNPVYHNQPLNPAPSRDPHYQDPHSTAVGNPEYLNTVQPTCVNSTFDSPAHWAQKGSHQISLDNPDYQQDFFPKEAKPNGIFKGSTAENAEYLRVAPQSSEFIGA
Description: as §3

PUMA = assay: Western blot, induction of PUMA in HCC827 and H1975 cells; format: cell-based; conditions: H1975 compared with HCC827, result in words
HCC827 cells = assay: Growth inhibition, sulforhodamine B assay, HCC827; format: cell-based; conditions: for IC50: HCC827 (EGFR E746_A750 deletion), 72 h; for anticancer activity / effect on cell proliferation: HCC827, result in words
Source text: as §1, §2

H1975 cells [4] = assay: Annexin V apoptosis assay; format: cell-based; conditions: for induction of apoptosis: H1975, 48 h, result in words; for proportion of apoptotic cells: 48 h
Description: Cells were grown on a 60-mm tissue culture dish at a density of about 5.0 × 10^5 cells/well. […] At the end of the treatment, both floating and attached cells were collected and washed twice with ice-cold phosphate buffer solution. The extent of apoptosis was determined by using the APC annexin-V apoptosis kit (BD Bioscience, San Jose, CA, USA) according to the manufacturer’s instructions. Cells positive for both annexin V and 7-AAD were considered apoptotic.

EGFR phosphorylation = assay: Western blot, EGFR autophosphorylation in HCC827 and H1975 cells; format: cell-based; conditions: H1975 compared with HCC827, 4 h, result in words
Description: (§4) Non-small cell lung cancer (HCC827, H1975) cell lines were treated with the tested drug candidates for the designated time (4 h). The cells were then harvested for Western blot analysis in lysis buffer (0.05-M HEPES pH 7.4, 0.15-M NaCl, 2-mM EDTA, 10% v/v glycerol, 1% v/v Triton X-100) supplemented with protease and phosphatase inhibitor cocktail (Thermo Scientific). Whole cell lysates were separated by SDS-PAGE and subjected to immunoblot analysis with the respective antibodies [total EGFR, phosphor-EGFR (Y845), phosphor-ERK1/2 (Thr177/Thr160), ERK1/2, phosphor-Akt, total Akt, and GAPDH (Santa Cruz Biotechnology, Santa Cruz, CA, USA)]. Primary antibody incubation was carried out at 4°C overnight in 5% bovine serum albumin/phosphate-buffered saline-Tween 20. Afterward, the membranes were incubated with HRP-conjugated donkey anti-mouse/anti-rabbit secondary antibody at room temperature for 1 h, and developed using the WesternBright Quantum chemiluminescence detection system (Advansta Corporation, Menlo Park, CA, USA). Anti-GAPDH antibody was used as the loading control (Santa Cruz Biotech, Santa Cruz, CA, USA). Digital chemiluminescence images were captured and quantified by using the FluorChem Q Imaging System (Alpha Innotech Corporation, Santa Clara, CA, USA).

[5] = system: phosphorylation of Akt and ERK; assay: Western blot, phosphorylation of Akt and ERK in HCC827 and H1975 cells; format: cell-based; conditions: H1975 compared with HCC827, 4 h, result in words
Description: as §4

EGFR L858R/T790M = EGFR L858R/T790M (Homo sapiens, UniProt P00533, L858R/T790M); assay: Cell-free kinase inhibition assay (ADP-Glo), EGFR L858R/T790M; format: biochemical; conditions: for Fold difference from L858R value: L858R/T790M IC50 versus L858R IC50; for IC50: recombinant EGFR L858R/T790M, poly-EY substrate
Sequence of EGFR L858R/T790M (P00533 25-1210 T790M/L858R): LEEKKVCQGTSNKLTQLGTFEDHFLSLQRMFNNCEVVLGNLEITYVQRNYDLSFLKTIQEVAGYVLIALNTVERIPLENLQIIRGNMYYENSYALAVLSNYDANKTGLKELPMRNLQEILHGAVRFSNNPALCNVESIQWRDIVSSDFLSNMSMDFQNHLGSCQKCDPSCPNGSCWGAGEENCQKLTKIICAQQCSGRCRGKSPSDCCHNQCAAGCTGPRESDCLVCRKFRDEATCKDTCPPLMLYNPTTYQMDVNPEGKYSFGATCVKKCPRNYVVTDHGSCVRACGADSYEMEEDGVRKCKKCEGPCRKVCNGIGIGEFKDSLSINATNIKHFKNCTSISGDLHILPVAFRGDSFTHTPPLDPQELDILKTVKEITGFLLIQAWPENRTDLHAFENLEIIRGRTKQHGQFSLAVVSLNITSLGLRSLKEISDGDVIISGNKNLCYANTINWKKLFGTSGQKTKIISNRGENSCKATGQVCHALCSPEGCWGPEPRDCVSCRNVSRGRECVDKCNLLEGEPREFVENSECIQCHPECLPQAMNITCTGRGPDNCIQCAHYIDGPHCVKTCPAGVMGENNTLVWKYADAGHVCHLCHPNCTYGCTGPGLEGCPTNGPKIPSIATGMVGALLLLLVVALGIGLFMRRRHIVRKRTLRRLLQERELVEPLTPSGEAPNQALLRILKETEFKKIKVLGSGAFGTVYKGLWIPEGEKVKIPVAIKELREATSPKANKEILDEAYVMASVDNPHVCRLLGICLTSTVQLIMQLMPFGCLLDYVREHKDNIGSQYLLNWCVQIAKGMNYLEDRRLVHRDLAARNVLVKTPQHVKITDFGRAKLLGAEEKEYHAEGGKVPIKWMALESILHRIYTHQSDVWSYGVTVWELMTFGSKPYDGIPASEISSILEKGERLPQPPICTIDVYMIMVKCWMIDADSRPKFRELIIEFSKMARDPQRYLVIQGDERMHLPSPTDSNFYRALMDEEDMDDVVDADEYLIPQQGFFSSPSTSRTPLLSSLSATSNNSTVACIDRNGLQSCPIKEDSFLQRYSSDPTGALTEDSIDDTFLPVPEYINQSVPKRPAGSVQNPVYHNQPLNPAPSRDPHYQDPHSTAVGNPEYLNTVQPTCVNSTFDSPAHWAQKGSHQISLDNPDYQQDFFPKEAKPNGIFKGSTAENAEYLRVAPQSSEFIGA
Description: as §3

BEAS-2B cells = assay: Cytotoxicity in normal lung epithelial cell line BEAS-2B; format: cell-based, human; conditions: for reduced cell viability: BEAS-2B
Source text: as §1, §2

[6] = system: L858R/T790M EGFR-bearing NSCLC cells; conditions: L858R/T790M EGFR-bearing NSCLC cells ref 15; cited from earlier work
[7] = system: phosphorylation of EGFR, Akt, and ERK; assay: Western blot, drug combination, phosphorylation of EGFR, Akt and ERK in H1975 cells; format: cell-based; conditions: H1975, gefitinib 10 µM, indacaterol 10 µM, alone or concomitant, 4 h, result in words
[8] = H1975 (EGFR L858R/T790M), 72 h, read-out: IC50
[9] = highest concentration tested 100 µM

IC50 (EGFR wild type [2]) | IC50 (EGFR L858R) | Fold difference from L858R value (EGFR L858R/T790M) | IC50 (EGFR L858R/T790M) | Compound | anticancer activity / effect on cell proliferation (H1975 cells [1]) | Fold difference from L858R value (EGFR wild type [3]) | anticancer activity / effect on cell proliferation (HCC827 cells) | induction of apoptosis (H1975 cells [4]) | inhibition of EGFR phosphorylation (EGFR phosphorylation) | also measured
795 ± 49.6 nM | 368 ± 29.6 nM | 0.7 | 261 ± 24.4 nM | Cc1ccc([C@@H]2O[C@H](CO)[C@@H](O)[C@H](O)[C@H]2O)cc1Cc1ccc(-c2ccc(F)cc2)s1 [Canagliflozin] | exhibit anticancer activity | 2.2 | exhibit anticancer activity | induce apoptosis in a concentration-dependent manner | more potently in H1975 than in HCC827 cells | IC50 (H1975 cells [1]; [8]): 25500 ± 3100 nM; induction of PUMA (PUMA): more pronounced induction of PUMA in H1975 cells than in HCC827 cells; IC50 (HCC827 cells): 45400 ± 2900 nM; inhibition of phosphorylation of Akt and ERK [5]: more remarkably in H1975 than in HCC827; reduced cell viability (BEAS-2B cells; [9]): less than 20%
– | – | – | – | COc1cc2ncnc(Nc3ccc(F)c(Cl)c3)c2cc1OCCCN1CCOCC1 [Gefitinib] | – | – | – | – | – | proportion of apoptotic cells (H1975 cells [4]; H1975, gefitinib alone 4 µM): 6.9 ± 1.2%
– | – | – | – | CCCc1nn(C)c2c(=O)[nH]c(-c3cc(S(=O)(=O)N4CCN(C)CC4)ccc3OCC)nc12 [Sildenafil] | negative | – | negative | – | – | –
186 ± 21.5 nM | 83 ± 5.2 nM | 1.1 | 94 ± 11.2 nM | OCCN1CCN(CC/C=C2/c3ccccc3Sc3ccc(C(F)(F)F)cc32)CC1 [Cis-flupenthixol] | exhibit anticancer activity | 2.2 | exhibit anticancer activity | induce apoptosis in a concentration-dependent manner | similarly in both H1975 and HCC827 cells | reduced cell viability (BEAS-2B cells; highest concentration tested 20 µM): less than 20%
– | – | – | – | O=C(c1ccc(F)cc1)C1CCN(CCn2c(=O)[nH]c3ccccc3c2=O)CC1 [Ketanserin] | negative | – | negative | – | – | –
– | – | – | – | C=CC(=O)Nc1cc(Nc2nccc(-c3cn(C)c4ccccc34)n2)c(OC)cc1N(C)CCN(C)C [osimertinib] | – | – | – | – | – | IC50 [6]: ~11 nM
792 ± 43.2 nM | 232 ± 36.5 nM | 0.4 | 103 ± 14 nM | CCc1cc2c(cc1CC)CC(NC[C@H](O)c1ccc(O)c3[nH]c(=O)ccc13)C2 [Indacaterol] | exhibit anticancer activity | 3.4 | exhibit anticancer activity | induce apoptosis in a concentration-dependent manner | more potently in H1975 than in HCC827 cells | IC50 (H1975 cells [1]; [8]): ~14000 nM; IC50 (H1975 cells [1]; Homo sapiens, NCI-H1975, 72 h, H1975 (EGFR L858R/T790M), 72 h, read-out: IC50): 14300 ± 2200 nM; induction of PUMA (PUMA): more pronounced induction of PUMA in H1975 cells than in HCC827 cells; IC50 (HCC827 cells; Homo sapiens): 41500 ± 3900 nM; proportion of apoptotic cells (H1975 cells [4]; H1975, indacaterol alone 5 µM): 9.7 ± 1.8%; inhibition of phosphorylation of EGFR, Akt, and ERK [7]: mildly; inhibition of phosphorylation of Akt and ERK [5]: more remarkably in H1975 than in HCC827; reduced cell viability (BEAS-2B cells; [9]): less than 20%
– | – | – | – | C#Cc1cccc(Nc2ncnc3cc(OCCOC)c(OCCOC)cc23)c1 [Erlotinib] | – | – | – | – | – | IC50 (H1975 cells [1]; Homo sapiens, NCI-H1975, 72 h): 8200 ± 2100 nM; IC50 (BEAS-2B cells; Homo sapiens, BEAS-2B normal lung epithelial cells): ~20000 nM
